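In this assay, cells in 96-well plates receive the compound at five concentrations for 48 hours. Endpoints are linearly interpolated between the surrounding concentrations. TGI denotes the concentration required for complete inhibition of growth.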
Experiments:
Test in all cases: DTP human tumour cell line panel, 48 h
SNB-19 CNS = test system: SNB-19 CNS
KM12 colon = test system: KM12 colon
SNB-75 CNS = test system: SNB-75 CNS
SK-MEL-28 melanoma = test system: SK-MEL-28 melanoma
HL-60(TB) leukemia = test system: HL-60(TB) leukemia
MALME-3M melanoma = test system: MALME-3M melanoma
T-47D breast = test system: T-47D breast
CCRF-CEM leukemia = test system: CCRF-CEM leukemia
SN12C renal = test system: SN12C renal
NCI-H460 lung = test system: NCI-H460 lung
MDA-MB-231 breast = test system: MDA-MB-231 breast
UO-31 renal = test system: UO-31 renal
786-0 renal = test system: 786-0 renal
HCT-116 colon = test system: HCT-116 colon
LOX IMVI melanoma = test system: LOX IMVI melanoma
OVCAR-3 ovarian = test system: OVCAR-3 ovarian
SF-295 CNS = test system: SF-295 CNS
DU-145 prostate = test system: DU-145 prostate
U251 CNS = test system: U251 CNS
OVCAR-5 ovarian = test system: OVCAR-5 ovarian
NCI-H522 lung = test system: NCI-H522 lung
CAKI-1 renal = test system: CAKI-1 renal
MDA-MB-435 = test system: MDA-MB-435
HCT-15 colon = test system: HCT-15 colon
NCI-H23 lung = test system: NCI-H23 lung
HS 578T breast = test system: HS 578T breast
PC-3 prostate = test system: PC-3 prostate
RPMI-8226 leukemia = test system: RPMI-8226 leukemia
MCF7 breast = test system: MCF7 breast
TK-10 renal = test system: TK-10 renal
A549 NSCLC = test system: A549 NSCLC
HOP-62 NSCLC = test system: HOP-62 NSCLC
A498 renal = test system: A498 renal
HOP-92 NSCLC = test system: HOP-92 NSCLC
HT29 colon = test system: HT29 colon
SF-539 CNS = test system: SF-539 CNS
UACC-257 melanoma = test system: UACC-257 melanoma
SK-MEL-5 melanoma = test system: SK-MEL-5 melanoma
ACHN renal = test system: ACHN renal
RXF 393 renal = test system: RXF 393 renal
SF-268 CNS = test system: SF-268 CNS
K-562 leukemia = test system: K-562 leukemia
SW-620 colon = test system: SW-620 colon
SR leukemia = test system: SR leukemia
UACC-62 melanoma = test system: UACC-62 melanoma
NCI/ADR-RES ovarian = test system: NCI/ADR-RES ovarian
EKVX NSCLC = test system: EKVX NSCLC
COLO 205 colon = test system: COLO 205 colon
OVCAR-8 ovarian = test system: OVCAR-8 ovarian
NCI-H226 lung = test system: NCI-H226 lung
MDA-N = test system: MDA-N
M14 melanoma = test system: M14 melanoma
HCC-2998 colon = test system: HCC-2998 colon
SK-OV-3 ovarian = test system: SK-OV-3 ovarian
MOLT-4 leukemia = test system: MOLT-4 leukemia
IGROV1 ovarian = test system: IGROV1 ovarian
OVCAR-4 ovarian = test system: OVCAR-4 ovarian

`CCCCc1ccc(-n2c(C)c(COC(=O)NC)c(COC(=O)NC)c2C)cc1` gave a TGI (SNB-19 CNS) of 30.4 µM, a TGI (KM12 colon) of 29.3 µM and a TGI (SNB-75 CNS) of 19.4 µM. For the same molecule, the TGI (SK-MEL-28 melanoma) was 33.8 µM, the TGI (HL-60(TB) leukemia) was 24.4 µM and the TGI (MALME-3M melanoma) was 22 µM. It also gave a TGI (T-47D breast) of 27 µM, a TGI (CCRF-CEM leukemia) of 18.4 µM and a TGI (SN12C renal) of 14.5 µM. For the same molecule, the TGI (NCI-H460 lung) was 18 µM, the TGI (MDA-MB-231 breast) was 17.8 µM and the TGI (UO-31 renal) was 10.6 µM. It also gave a TGI (786-0 renal) of 16 µM, a TGI (HCT-116 colon) of 17.8 µM and a TGI (LOX IMVI melanoma) of 18.4 µM. The TGI (OVCAR-3 ovarian) was 24.5 µM, the TGI (SF-295 CNS) was 24.4 µM and the TGI (DU-145 prostate) was 26.3 µM. The TGI (U251 CNS) was 17.4 µM, the TGI (OVCAR-5 ovarian) was 17.1 µM and the TGI (NCI-H522 lung) was 9.3 µM. For the same molecule, the TGI (CAKI-1 renal) was 15.9 µM, the TGI (MDA-MB-435) was 28.1 µM and the TGI (HCT-15 colon) was 20.9 µM. The TGI (NCI-H23 lung) was 26.4 µM, the TGI (HS 578T breast) was 45.9 µM and the TGI (PC-3 prostate) was 32 µM. It also gave a TGI (RPMI-8226 leukemia) of 19.8 µM, a TGI (MCF7 breast) of 19.3 µM and a TGI (TK-10 renal) of 12.4 µM. It also gave a TGI (A549 NSCLC) of 19.6 µM, a TGI (HOP-62 NSCLC) of 21.6 µM and a TGI (A498 renal) of 2.6 µM. The TGI (HOP-92 NSCLC) was 11.5 µM, the TGI (HT29 colon) was 24.9 µM and the TGI (SF-539 CNS) was 15.9 µM. The TGI (UACC-257 melanoma) was 24 µM, the TGI (SK-MEL-5 melanoma) was 23.5 µM and the TGI (ACHN renal) was 7.22 µM. For the same molecule, the TGI (RXF 393 renal) was 9.8 µM, the TGI (SF-268 CNS) was 20.3 µM and the TGI (K-562 leukemia) was over 100 µM. The TGI (SW-620 colon) was 21.4 µM, the TGI (SR leukemia) was 17.2 µM and the TGI (UACC-62 melanoma) was 10.5 µM. For the same molecule, the TGI (NCI/ADR-RES ovarian) was 27.4 µM, the TGI (EKVX NSCLC) was 27.8 µM and the TGI (COLO 205 colon) was 19.6 µM. The TGI (OVCAR-8 ovarian) was 16.5 µM, the TGI (NCI-H226 lung) was 2.85 µM and the TGI (MDA-N) was 31.3 µM. It also gave a TGI (M14 melanoma) of 24.5 µM, a TGI (HCC-2998 colon) of 30.7 µM and a TGI (SK-OV-3 ovarian) of 14.1 µM.

With `CCOC(=O)NC(Nc1ncn(C(NC(=O)OCC)(C(F)(F)F)C(F)(F)F)n1)(C(F)(F)F)C(F)(F)F` the TGI (SNB-19 CNS) was over 100 µM, the TGI (MOLT-4 leukemia) was over 100 µM and the TGI (KM12 colon) was over 100 µM. For the same molecule, the TGI (SNB-75 CNS) was over 100 µM, the TGI (SK-MEL-28 melanoma) was over 100 µM and the TGI (HL-60(TB) leukemia) was over 100 µM. It also gave a TGI (MALME-3M melanoma) of over 100 µM, a TGI (T-47D breast) of over 100 µM and a TGI (CCRF-CEM leukemia) of over 100 µM. It also gave a TGI (SN12C renal) of over 100 µM, a TGI (NCI-H460 lung) of over 100 µM and a TGI (MDA-MB-231 breast) of over 100 µM. It also gave a TGI (UO-31 renal) of 30.3 µM, a TGI (786-0 renal) of over 100 µM and a TGI (HCT-116 colon) of over 100 µM. It also gave a TGI (LOX IMVI melanoma) of over 100 µM, a TGI (IGROV1 ovarian) of over 100 µM and a TGI (OVCAR-3 ovarian) of over 100 µM. The TGI (SF-295 CNS) was over 100 µM, the TGI (DU-145 prostate) was over 100 µM and the TGI (U251 CNS) was over 100 µM. The TGI (OVCAR-5 ovarian) was over 100 µM, the TGI (CAKI-1 renal) was over 100 µM and the TGI (MDA-MB-435) was over 100 µM. The TGI (HCT-15 colon) was over 100 µM, the TGI (NCI-H23 lung) was over 100 µM and the TGI (HS 578T breast) was over 100 µM. For the same molecule, the TGI (PC-3 prostate) was over 100 µM, the TGI (RPMI-8226 leukemia) was over 100 µM and the TGI (MCF7 breast) was over 100 µM. The TGI (TK-10 renal) was over 100 µM, the TGI (A549 NSCLC) was over 100 µM and the TGI (HOP-62 NSCLC) was over 100 µM. It also gave a TGI (A498 renal) of over 100 µM, a TGI (HOP-92 NSCLC) of over 100 µM and a TGI (HT29 colon) of over 100 µM. For the same molecule, the TGI (SF-539 CNS) was over 100 µM, the TGI (UACC-257 melanoma) was over 100 µM and the TGI (SK-MEL-5 melanoma) was over 100 µM. It also gave a TGI (ACHN renal) of over 100 µM, a TGI (RXF 393 renal) of over 100 µM and a TGI (SF-268 CNS) of over 100 µM. It also gave a TGI (K-562 leukemia) of over 100 µM, a TGI (SW-620 colon) of over 100 µM and a TGI (SR leukemia) of over 100 µM. For the same molecule, the TGI (OVCAR-4 ovarian) was over 100 µM, the TGI (UACC-62 melanoma) was over 100 µM and the TGI (NCI/ADR-RES ovarian) was over 100 µM. The TGI (EKVX NSCLC) was over 100 µM, the TGI (COLO 205 colon) was over 100 µM and the TGI (OVCAR-8 ovarian) was over 100 µM. The TGI (NCI-H226 lung) was over 100 µM, the TGI (MDA-N) was over 100 µM and the TGI (M14 melanoma) was over 100 µM. It also gave a TGI (HCC-2998 colon) of over 100 µM and a TGI (SK-OV-3 ovarian) of over 100 µM.

Reference: PubChem BioAssay (NCI)
